Test results from patent US8906896B2, “Platinum acridine anti-cancer compounds and methods thereof” (priority 2008, dated 2014).

How the values were obtained:
NCI-H460 NSCLC cell line [1] = settings: typical values; cited from earlier work
NCI-H460 NSCLC cell line [2] = assay: Cytotoxicity (cell proliferation) assay, NCI-H460; type: cell-based
Protocol: Cytotoxicity Assay. Cytotoxicity studies were carried out according to a standard protocol (Guddneppanavar et al. 2006) using the Celltiter 96 Aqueous Non-Radioactive Cell Proliferation Assay kit (Promega, Madison, Wis.). […] IC50 values were calculated from non-linear curve fits using a sigmoidal dose-response equation in GraphPad Prism (GraphPad Software, La Jolla, Calif.).

[3] = tested on: H460 NSCLC tumors xenografted into nude mice; assay: H460 xenograft study in nude mice; type: in vivo
Protocol: (§1) Xenograft Study. H460 xenografts were established in nude athymic female mice via bilateral subcutaneous injections. Treatment began when the average tumor volume was approximately 100 mm^3. The tumor-bearing mice were randomized depending on tumor volume into three groups of five test animals each: one control group receiving vehicle only, one group treated at 0.1 mg/kg 5d/w×2 (A), and one group treated at 0.5 mg/kg q4d×3 (B). Animal weights and tumor volumes were measured and recorded for 17 days after the first dose was administered. Tumor volumes were determined using the formula:V (mm^3)=d^2×D/2, where d and D are the shortest and longest dimension of the tumor, respectively, and are reported as the sum of both tumors for each test animal. At the end of the study, all animals were euthanized and disposed of according to Standard Operating Procedures (SOPs). Statistical analysis of the growth curves was done using a non-linear polynomial random-coefficient model in SAS Proc Mixed (SAS Institute Inc., Cary, N.C.).
(§2) The antitumor activity of compound 14b was evaluated against H460 bilateral tumors implanted into athymic nude mice. […] Complex 14b was administered intraperitonealy (i.p.) according to the following dosing schedules: (A) 0.1 mg/kg, five days per week for two consecutive weeks (5d/w×2), and (B) 0.5 mg/kg, three doses given at 4-day intervals (q4d×3). The tumor volumes recorded in both treatment groups and in untreated control animals are plotted vs. days of treatment in FIG. 1. At the end of the study, the tumors measured 1834±160, 1798±309, and 1102±319 mm^3 (means±S.E.M.) for the control animals and animals treated according to schedules A and B, respectively.
(§3) Growth curves are shown for untreated control animals (open squares), and mice treated according to schedule A (filled triangles) and schedule B (filled circles). Measurement of tumor volumes began on day 0, and treatment began on day 4. Each data point represents the mean of 5 tumor volumes±S.E.M.

[4] = H460 xenograft study in nude mice; type: in vivo; settings: female, athymic nude, mouse, in vivo, ip, q4d×3, mice; dose B stated to be close to the MTD; read-out: maximum tolerated dose (MTD)
Protocol: as §1, §2, §3

Structure (SMILES) | IC50 in H460 cells (typical) (NCI-H460 NSCLC cell line [1]) | potency in H460 cells relative to the compounds of the invention (fold less potent) (NCI-H460 NSCLC cell line [2]) | tolerated dose relative to cisplatin ([3]; administered i.p.) | effect on tumor growth ([3]; schedule A: 0.1 mg/kg i.p. 5d/w×2) | effect on tumor growth rate compared to control group ([3]; schedule B: 0.5 mg/kg i.p. q4d×3, P<0.01) | MTD at 17 days [4] [mg/kg]
N.N.[Cl][Pt][Cl] [Cisplatin, cis-diamminedichloroplatinum] | micromolar range | at least 20 fold | – | – | – | –
CC/C(=[N]\[Pt]([NH2])([NH2])[Cl])N(C)CCNc1c2ccccc2nc2ccccc12 [Compound 14b] | – | – | an order of magnitude lower than those commonly applied for cisplatin | no effect on tumor growth | slowed the tumor growth rate significantly | ~0.5
